As usually defined, the IC50 is the concentration at which inhibition is half-maximal.

Sequence of human IDO1 (P14902 whole entry): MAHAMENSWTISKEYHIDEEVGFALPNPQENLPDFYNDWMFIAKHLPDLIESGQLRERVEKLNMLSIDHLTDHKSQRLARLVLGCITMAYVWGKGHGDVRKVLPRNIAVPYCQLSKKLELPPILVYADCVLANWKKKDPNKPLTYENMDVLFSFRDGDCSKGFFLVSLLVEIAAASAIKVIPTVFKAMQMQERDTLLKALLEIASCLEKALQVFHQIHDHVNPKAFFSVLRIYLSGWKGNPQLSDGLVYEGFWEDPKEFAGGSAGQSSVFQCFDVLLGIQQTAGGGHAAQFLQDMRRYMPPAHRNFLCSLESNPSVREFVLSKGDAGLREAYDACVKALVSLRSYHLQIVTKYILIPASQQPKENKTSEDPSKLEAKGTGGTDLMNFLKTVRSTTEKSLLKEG

The target of this assay is human IDO1 (Homo sapiens, UniProt P14902). As to the kind of experiment: Assessment of human IDO-1 inhibitory activity in Hela cells (Interferon-gamma stimulated HeLa cells, Ehrlich reagent, absorbance 490 nm). It is filed as cell-based. The note with it: Hela Human IDO-1 cellular assay. Set-up: endogenous in cells; host or cells: HeLa cells stimulated with interferon-gamma. The method in brief:
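IDO activity induced by 18 h IFN-γ (human 10 ng/ml or murine 5 ng/ml, final) after 1 h compound pre-treatment of HeLa cells at 37 °C. Supernatant kynurenine detected via Ehrlich reagent absorbance at 490 nm following 3% TCA at 50 °C; IC50 set against no-IFN-γ and untreated-stimulated controls.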
In the case of `COCC(CC(=O)O)c1ccc(N(C)C2CCOCC2)c(NC(=O)Nc2ccc(Cl)cc2F)c1` (single isomer, unassigned) [Example 886, 3-(3-(3-(4-Chloro-2-fluorophenyl)ureido)-4-(methyl(tetrahydro-2H-pyran-4-yl)amino)phenyl)-4-methoxybutanoic acid], the IC50 was greater than 50 nM.
In the case of `COCC(CC(=O)O)c1ccc(N2CCOC[C@@H]2C(C)C)c(Nc2ccc(Cl)cc2)c1` (single isomer, unassigned) [Example 930] it was less than 50 nM; in that of `CCN(c1ccc([C@H](CC(=O)O)C(F)(F)F)cc1NC(=O)Nc1ccc(C#N)cc1)C1CCOCC1` (single isomer, unassigned) [Example 1268], greater than 50 nM.
`CCOc1cc(Nc2cc([C@@H](COC)CC(=O)O)ccc2N(CC)C2CCOCC2)ccc1C#N` (single isomer, unassigned) [Example 370] returned an IC50 of less than 50 nM.
For `CCC(CC(=O)O)c1ccc(N2C[C@@H]3C[C@H]2CN3C(=O)OC(C)(C)C)c(Nc2ccccc2)c1` (single isomer, unassigned) [Example 444], the IC50 is less than 5 nM.
In turn, `COCCN(c1ccc(C(C)(C)CC(=O)O)cc1Nc1ccc(C#N)cc1)C1CCOCC1` [Example 16, 3-(3-((4-cyanophenyl)amino)-4-((2-methoxyethyl)(tetrahydro-2H-pyran-4-yl)amino)phenyl)-3-methylbutanoic acid] had an IC50 of less than 5 nM.
In the case of `CCC1COCCN1c1ccc([C@@H](COC)CC(=O)O)cc1Nc1ccc(C#N)cc1` (single isomer, unassigned) [Example 1295] it was less than 50 nM; in that of `CCC1COCCN1c1ccc([C@H](COC)CC(=O)O)cc1Nc1ccc(C#N)cn1` (single isomer, unassigned) [Example 1289], greater than 50 nM; in that of `COCC(CC(=O)O)c1ccc(N(C)C2CCOCC2)c(Nc2ccc(C#N)cc2F)c1` (single isomer, unassigned) [Example 876, 3-(3-((4-cyano-2-fluorophenyl)amino)-4-(methyl(tetrahydro-2H-pyran-4-yl)amino)phenyl)-4-methoxybutanoic acid], less than 50 nM.
In the case of `COCC(CC(=O)O)c1ccc(N2C[C@@H]3C[C@H]2CN3C(=O)OC(C)(C)C)c(Nc2ccc(C#N)cc2)c1` (single isomer, unassigned) [Example 451 Diastereomer 2] it was greater than 50 nM; in that of `CCC1COCCN1c1ccc([C@H](COC)CC(=O)O)cc1Nc1ccc(F)cc1` (single isomer, unassigned) [Example 1293], greater than 50 nM; in that of `CCN(c1ccc(C(C)CC(=O)O)cc1Nc1ccc2c(c1)OC(F)(F)O2)C1CCOCC1` (single isomer, unassigned) [Example 628, 3-(3-((2,2-difluorobenzo[d] [1,3]dioxol-5-yl)amino)-4-(ethyl(tetrahydro-2H-pyran-4-yl)amino)phenyl)butanoic acid], less than 5 nM.
The figure for `CC[C@H](CC(=O)O)c1ccc(N(CC)C2CCOCC2)c(Nc2ccc(N(C)C)nc2)c1` (single isomer, unassigned) [Example 506] is greater than 50 nM; for `CCOc1ncc(Nc2cc(C(CC)CC(=O)O)ccc2N2CCN(C(=O)OC(C)(C)C)CC2)cn1` (single isomer, unassigned) [Example 675, 3-(4-(4-(tert-Butoxycarbonyl)piperazin-1-yl)-3-((2-ethoxypyrimidin-5-yl)amino)phenyl)pentanoic acid] it is greater than 50 nM; for `CCOc1ncc(Nc2cc(C(CC)CC(=O)O)ccc2N2CCN(C(=O)OC)CC2)cn1` (single isomer, unassigned) [Example 669, 3-(3-((2-Ethoxypyrimidin-5-yl)amino)-4-(4-(methoxycarbonyl)piperazin-1-yl)phenyl)pentanoic acid] it is greater than 50 nM.
`CCC(CC(=O)O)c1cnc(N(CC)C2CCOCC2)c(Nc2ccc(C#N)cc2)c1` (racemic) [Example 1379] had an IC50 of less than 5 nM.
As for `COCC(CC(=O)O)c1ccc(N(CC2CC2)C2CCOCC2)c(Nc2ccc(C(N)=O)nc2)c1` (single isomer, unassigned) [Example 693, 3-(3-((6-carbamoylpyridin-3-yl)amino)-4-((cyclopropylmethyl) (tetrahydro-2H-pyran-4-yl)amino)phenyl)-4-methoxybutanoic acid], the IC50 was greater than 50 nM.
Turning to `CCCN(c1ccc(C(C)(C)CC(=O)O)cc1Nc1ccc(Cl)cc1)C1CCOCC1` [Example 21, 3-(3-((4-Chlorophenyl)amino)-4-(propyl(tetrahydro-2H-pyran-4-yl)amino)phenyl)-3-methylbutanoic acid], the IC50 is less than 5 nM.
In the case of `CCC(CC(=O)O)c1ccc(N2CC(O)(c3ccc(F)cc3)C2)c(Nc2ccc(Cl)cc2)c1` (single isomer, unassigned) [Example 1253 E1, 3-(3-((4-Chlorophenyl)amino)-4-(3-(4-fluorophenyl)-3-hydroxyazetidin-1-yl)phenyl)pentanoic acid] it was less than 50 nM; in that of `CCOc1ncc(Nc2cc(C(CC)CC(=O)O)ccc2N(C)C2CCOCC2)cn1` (single isomer, unassigned) [Example 869, 3-(3-((2-ethoxy-pyrimidin-5-yl)amino)-4-(methyl (tetrahydro-2H-pyran-4-yl)amino)phenyl) pentanoic acid], less than 50 nM.
The figure for `CC(CC(=O)O)c1ccc(N(CC(C)(C)O)C2CCCCC2)c(Nc2ccc(Cl)cc2)c1` (single isomer, unassigned) [Example 48 Enantiomer 1, 3-(3-((4-Chlorophenyl)amino)-4-(cyclohexyl(2-hydroxy-2-methylpropyl)amino)phenyl)butanoic acid] is less than 5 nM.
In the case of `CCOc1ncc(Nc2cc(C(COC)CC(=O)O)ccc2N(C)C2CCOCC2)cn1` (single isomer, unassigned) [Example 878, 3-(3-((2-ethoxypyrimidin-5-yl)amino)-4-(methyl (tetrahydro-2H-pyran-4-yl)amino)phenyl)-4-methoxybutanoic acid] it was greater than 50 nM.
`CCNC(=O)NC[C@@H](CC)c1ccc(N(CC)C2CCOCC2)c(Nc2cnc(OCC)nc2)c1` [Example 1366, (S)-1-(2-(3-((2-Ethoxypyrimidin-5-yl)amino)-4-(ethyl(tetrahydro-2H-pyran-4-yl)amino)phenyl)butyl)-3-ethylurea] had an IC50 greater than 50 nM.
In the case of `CCC(CC(=O)O)c1ccc(N(CC(F)F)C2CCOCC2)c(Nc2ccc(Cl)cc2)c1` (single isomer, unassigned) [Example 318 Enantiomer 1, 3-(3-((4-Chlorophenyl)amino)-4-((2,2-difluoroethyl)(tetrahydro-2H-pyran-4-yl)amino)phenyl)pentanoic acid] it was less than 5 nM; in that of `CCC1COCCN1c1ccc([C@H](COC)CC(=O)O)cc1Nc1ccc(F)cn1` (single isomer, unassigned) [Example 1294], greater than 50 nM.
The figure for `CCN(c1ccc([C@@H](COC(C)C)CC(=O)O)cc1Nc1ccc(C#N)cc1)C1CCOCC1` (single isomer, unassigned) [Example 324] is less than 50 nM.
Compound `COCC(CC(=O)O)c1ccc(N2C[C@@H](C)O[C@@H](C)C2)c(NC(=O)Nc2ccc(Cl)cc2F)c1` (single isomer, unassigned) [Example 606] showed an IC50 greater than 50 nM.

For the origin of these results see patent publication US9790169B2, “IDO inhibitors” (BRISTOL-MYERS SQUIBB COMPANY, priority 2015, dated 2017).
